The text below walks through data of patent publication US20070066546A1, “Compositions for the reversible thioesterification of signaling proteins and methods of using same” (priority 2005, published 2007).

For assay [1], the system named is mouse embryonic fibroblast. Particulars: cited from earlier work.
In assay [2] the test system is E. coli strain TA4112 (OxyR-null). The experiment in a line: Hydroperoxidase I (HPI) assay in crude extracts of treated OxyR-null bacteria. It is filed as cell-based. The settings on record: OxyR-null cells, 100 μM, 60 min. As for the experimental part: (§1) Hydroperoxidase I (HPI) Assay. The peroxidase activity of HPI was measured as described (Hausladen, A. et al. (1996) Cell 86, 719-729), in 50 mM potassium phosphate buffer (pH 7.5) containing 0.1 mM EDTA, 10 mM H2O2, and 0.2 mg/ml o-dianisidine, by measuring the increase in absorbance at 460 nm (Clairborne, A. & Fridovich, I. (1979) Biochemistry 18, 2324-2329). An extinction coefficient of 11.3 mM^−1 cm^−1 was used to calculate the specific activity of HPI ((1993) in Worthington Enzyme Manual: Peroxidase, ed. Worthington, V. (Worthington Biochemical Corporation, Freehold, N.J.)).
(§2) HPI, the enzyme encoded by the katG gene, protects bacterial cells against hydrogen peroxide-induced stress. E. coli strains RK4936 (wild-type) and TA4112 (OxyR-null) were grown aerobically to an A600 of 0.5 and then treated with 100 μM F094 or avicin D or G for 60 min. Cells were harvested by centrifugation, and the peroxidase activity in crude extracts was determined (see Materials and Methods). Wild-type (RK4936) and OxyR-null (TA4112) strains of bacteria were treated with avicins and assayed for HPI activity.

The test system of assay [3] is E. coli strain RK4936 (wild-type). Kind of assay: Hydroperoxidase I (HPI) assay in crude extracts of treated wild-type bacteria. It is filed as cell-based. The settings on record: wild-type cells, 100 μM, 60 min. The method, then:
as §1, §2

The target of a further assay is OxyR (Escherichia coli, UniProt P0ACQ4). Kind of assay: In vitro transcription and primer extension with avicin-modified OxyR (katG and oxyS templates). The settings on record: for relative potency as activator of OxyR (in vitro transcriptional activity): comparison between F094, avicin D and avicin G; for OxyR activation as assessed by in vitro transcriptional activation of katG and oxyS: reduced OxyR, strictly anaerobic conditions, avicins:OxyR 1:10-100:1. It is filed as biochemical, E. coli. As for the experimental part: Reduction of OxyR. The reduced form of OxyR was generated by addition of a large excess of DTT (200 mM) for 1 h, followed by exhaustive dialysis (25 mM potassium phosphate/250 mM potassiumsulfate/1 mM magnesium sulfate/100 μM DTPA, pH 8) in an anaerobic glove box. Removal of DTT was monitored by the color change after addition of 5,5′-dithionitrobenzoic acid to an aliquot of the dialysis buffer.
Treatment of OxyR with Avicins. Reduced OxyR was treated with a 10-fold molar excess of F094 or purified avicin D or G to generate avicin-modified OxyR. The reaction was performed under anaerobic conditions for 1 h, followed by dialysis.
In Vitro Transcription and Primer Extension. In vitro transcription with the various modified forms of OxyR was performed as described (Kim, S. O., et al. (2002) Cell 109, 383-396). Plasmid pBT22 was used as the katG template and pUCOXYS, a plasmid containing the oxyS-coding region cloned into pUC19, was used as the oxyS template. Where indicated, avicin-modified forms of OxyR were reduced with 200 mM DTT. Primer extension assays were performed by using AMV reverse transcriptase (Promega), according to instructions supplied by the manufacturer.
Avicin modified OxyR was incubated with plasmids containing the katG or oxyS genes followed by primer extension (see Materials and Methods). After primer extension, samples were untreated or treated with DTT before gel analysis. Band intensities were quantified (phosphoimager), and data are plotted at top as percent maximal activation (n=2-3). At bottom, corresponding raw data from an individual experiment are depicted.

Sequence of OxyR (P0ACQ4 whole entry): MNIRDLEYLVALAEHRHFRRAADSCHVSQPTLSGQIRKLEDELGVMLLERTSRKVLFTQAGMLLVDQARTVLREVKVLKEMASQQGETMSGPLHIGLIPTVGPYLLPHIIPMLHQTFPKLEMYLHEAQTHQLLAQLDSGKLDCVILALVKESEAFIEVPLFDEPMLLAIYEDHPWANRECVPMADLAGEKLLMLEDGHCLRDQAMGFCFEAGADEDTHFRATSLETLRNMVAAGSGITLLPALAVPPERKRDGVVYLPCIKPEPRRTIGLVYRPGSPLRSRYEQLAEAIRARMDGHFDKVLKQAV

Regarding `CC(=O)N[C@@H](CS)C(=O)O` [NAC, N-acetyl-L-cysteine], in assay [1] (NAC treatment), the “decrease in cyclin D1 protein levels” value is given as 70% and the “increase in p27 protein levels” value is reported as 3-4 fold. Also, the “increase in intracellular low-molecular-weight thiols” value in assay [1] (treatment for 12 h) is on record as 6 fold.
As to `C=C[C@](C)(O)CC/C=C(\CO)C(=O)O[C@H]1[C@H](O)[C@@H](O)[C@H](O[C@@](C)(C=C)CC/C=C(\CO)C(=O)O[C@H]2C[C@]3(C(=O)O[C@@H]4O[C@H](CO)[C@@H](O)[C@H](O)[C@H]4O[C@@H]4O[C@@H](C)[C@H](O[C@@H]5O[C@@H](CO)[C@H](O)[C@H]5O)[C@@H](O[C@@H]5O[C@H](CO)[C@@H](O)[C@H](O)[C@H]5O)[C@H]4O)[C@H](O)C[C@]4(C)C(=CC[C@@H]5[C@@]6(C)CC[C@H](O[C@@H]7O[C@H](CO[C@@H]8O[C@H](C)[C@H](O)[C@H](O)[C@H]8O[C@@H]8OC[C@@H](O)[C@H](O)[C@H]8O)[C@@H](O)[C@H](O)[C@H]7NC(C)=O)C(C)(C)[C@@H]6CC[C@]54C)[C@@H]3CC2(C)C)O[C@@H]1C` [avicin D], the figures for the HPI activity entry in assay [2] and in assay [3] were “no increase in activity” and “doubled HPI activity”, respectively. Also, the “relative potency as activator of OxyR (in vitro transcriptional activity)” value at OxyR is recorded as “more potent activators than avicin G”. Moreover, the “OxyR activation as assessed by in vitro transcriptional activation of katG and oxyS” value at OxyR is given as “resulted in OxyR activation”.
The corresponding values for `C=C[C@](C)(O)CC/C=C(\C)C(=O)O[C@H]1[C@H](O)[C@@H](O)[C@H](O[C@@](C)(C=C)CC/C=C(\CO)C(=O)O[C@H]2C[C@]3(C(=O)O[C@@H]4O[C@H](CO)[C@@H](O)[C@H](O)[C@H]4O[C@@H]4O[C@@H](C)[C@H](O[C@@H]5O[C@@H](CO)[C@H](O)[C@H]5O)[C@@H](O[C@@H]5O[C@H](CO)[C@@H](O)[C@H](O)[C@H]5O)[C@H]4O)[C@H](O)C[C@]4(C)C(=CC[C@@H]5[C@@]6(C)CC[C@H](O[C@@H]7O[C@H](CO[C@@H]8O[C@H](C)[C@H](O)[C@H](O)[C@H]8O[C@@H]8OC[C@@H](O)[C@H](O)[C@H]8O)[C@@H](O)[C@H](O)[C@H]7NC(C)=O)C(C)(C)[C@@H]6CC[C@]54C)[C@@H]3CC2(C)C)O[C@@H]1C` [avicin G] are “no increase in activity”, “doubled HPI activity”, “lower” and “resulted in OxyR activation”.
